# How the values were obtained:
# [1] = molecular target: Histone deacetylase (HDAC1 and HDAC2) (Homo sapiens, UniProt Q13547+Q92769); assay: Inhibition of HDAC1/2 in human K562 nuclear extraction; format: cell-free
# Histone deacetylase 8 = molecular target: T1, Histone deacetylase 8 (Homo sapiens, UniProt Q9BY41); assay: Inhibition of human recombinant HDAC8
# T1 sequence (Q9BY41 whole entry): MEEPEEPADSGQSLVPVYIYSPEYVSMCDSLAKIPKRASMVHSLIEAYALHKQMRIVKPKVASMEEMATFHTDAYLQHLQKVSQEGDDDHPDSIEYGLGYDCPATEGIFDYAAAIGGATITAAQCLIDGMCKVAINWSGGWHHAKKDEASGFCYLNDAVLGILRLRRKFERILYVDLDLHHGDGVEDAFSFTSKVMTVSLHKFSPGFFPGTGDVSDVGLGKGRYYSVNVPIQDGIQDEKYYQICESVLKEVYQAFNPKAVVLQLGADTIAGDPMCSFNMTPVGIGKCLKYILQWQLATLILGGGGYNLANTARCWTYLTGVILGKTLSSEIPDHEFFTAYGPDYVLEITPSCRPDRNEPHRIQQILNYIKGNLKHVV
# Histone deacetylase 9 = Histone deacetylase 9 (Homo sapiens, UniProt Q9UKV0); assay: Inhibition of human recombinant HDAC9
# Sequence of Histone deacetylase 9 (Q9UKV0 whole entry): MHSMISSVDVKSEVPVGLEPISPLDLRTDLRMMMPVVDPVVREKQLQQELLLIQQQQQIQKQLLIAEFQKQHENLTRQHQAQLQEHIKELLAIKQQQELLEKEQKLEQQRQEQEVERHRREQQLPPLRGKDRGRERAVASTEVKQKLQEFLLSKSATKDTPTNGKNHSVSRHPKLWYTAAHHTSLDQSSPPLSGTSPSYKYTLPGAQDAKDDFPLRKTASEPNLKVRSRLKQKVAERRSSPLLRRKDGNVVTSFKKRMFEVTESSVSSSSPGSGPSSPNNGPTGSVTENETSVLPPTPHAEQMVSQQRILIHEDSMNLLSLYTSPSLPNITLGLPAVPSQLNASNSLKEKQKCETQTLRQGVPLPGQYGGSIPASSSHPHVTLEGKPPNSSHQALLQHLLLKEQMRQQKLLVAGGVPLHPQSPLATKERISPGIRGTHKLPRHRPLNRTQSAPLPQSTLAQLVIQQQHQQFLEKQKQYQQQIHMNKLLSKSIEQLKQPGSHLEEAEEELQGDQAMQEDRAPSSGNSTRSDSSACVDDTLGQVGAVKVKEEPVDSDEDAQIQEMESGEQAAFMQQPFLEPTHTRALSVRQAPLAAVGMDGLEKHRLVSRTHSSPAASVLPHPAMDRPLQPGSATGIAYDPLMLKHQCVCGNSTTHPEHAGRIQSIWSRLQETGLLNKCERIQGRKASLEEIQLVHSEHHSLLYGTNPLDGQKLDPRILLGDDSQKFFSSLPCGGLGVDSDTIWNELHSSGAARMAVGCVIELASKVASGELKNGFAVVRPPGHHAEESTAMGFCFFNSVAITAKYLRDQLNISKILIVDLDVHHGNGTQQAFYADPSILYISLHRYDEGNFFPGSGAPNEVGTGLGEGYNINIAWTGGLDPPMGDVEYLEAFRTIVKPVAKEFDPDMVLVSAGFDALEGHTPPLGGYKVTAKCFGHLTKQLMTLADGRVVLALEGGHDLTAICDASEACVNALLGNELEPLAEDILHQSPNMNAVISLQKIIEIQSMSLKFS
# Histone deacetylase 11 = molecular target: T2, Histone deacetylase 11 (Homo sapiens, UniProt Q96DB2); assay: Inhibition of human recombinant HDAC11
# T2 sequence (Q96DB2 whole entry): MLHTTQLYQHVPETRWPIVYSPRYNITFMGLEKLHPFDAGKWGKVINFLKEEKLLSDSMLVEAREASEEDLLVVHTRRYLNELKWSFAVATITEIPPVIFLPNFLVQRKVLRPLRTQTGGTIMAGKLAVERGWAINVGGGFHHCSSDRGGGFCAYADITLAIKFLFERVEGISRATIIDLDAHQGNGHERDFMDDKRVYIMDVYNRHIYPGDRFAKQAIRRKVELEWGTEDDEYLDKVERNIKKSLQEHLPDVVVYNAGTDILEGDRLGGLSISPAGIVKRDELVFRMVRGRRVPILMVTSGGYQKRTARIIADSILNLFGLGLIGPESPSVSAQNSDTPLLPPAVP
# Histone deacetylase 4 = Histone deacetylase 4 (Homo sapiens, UniProt P56524); assay: Inhibition of human recombinant HDAC4
# Sequence of Histone deacetylase 4 (P56524 whole entry): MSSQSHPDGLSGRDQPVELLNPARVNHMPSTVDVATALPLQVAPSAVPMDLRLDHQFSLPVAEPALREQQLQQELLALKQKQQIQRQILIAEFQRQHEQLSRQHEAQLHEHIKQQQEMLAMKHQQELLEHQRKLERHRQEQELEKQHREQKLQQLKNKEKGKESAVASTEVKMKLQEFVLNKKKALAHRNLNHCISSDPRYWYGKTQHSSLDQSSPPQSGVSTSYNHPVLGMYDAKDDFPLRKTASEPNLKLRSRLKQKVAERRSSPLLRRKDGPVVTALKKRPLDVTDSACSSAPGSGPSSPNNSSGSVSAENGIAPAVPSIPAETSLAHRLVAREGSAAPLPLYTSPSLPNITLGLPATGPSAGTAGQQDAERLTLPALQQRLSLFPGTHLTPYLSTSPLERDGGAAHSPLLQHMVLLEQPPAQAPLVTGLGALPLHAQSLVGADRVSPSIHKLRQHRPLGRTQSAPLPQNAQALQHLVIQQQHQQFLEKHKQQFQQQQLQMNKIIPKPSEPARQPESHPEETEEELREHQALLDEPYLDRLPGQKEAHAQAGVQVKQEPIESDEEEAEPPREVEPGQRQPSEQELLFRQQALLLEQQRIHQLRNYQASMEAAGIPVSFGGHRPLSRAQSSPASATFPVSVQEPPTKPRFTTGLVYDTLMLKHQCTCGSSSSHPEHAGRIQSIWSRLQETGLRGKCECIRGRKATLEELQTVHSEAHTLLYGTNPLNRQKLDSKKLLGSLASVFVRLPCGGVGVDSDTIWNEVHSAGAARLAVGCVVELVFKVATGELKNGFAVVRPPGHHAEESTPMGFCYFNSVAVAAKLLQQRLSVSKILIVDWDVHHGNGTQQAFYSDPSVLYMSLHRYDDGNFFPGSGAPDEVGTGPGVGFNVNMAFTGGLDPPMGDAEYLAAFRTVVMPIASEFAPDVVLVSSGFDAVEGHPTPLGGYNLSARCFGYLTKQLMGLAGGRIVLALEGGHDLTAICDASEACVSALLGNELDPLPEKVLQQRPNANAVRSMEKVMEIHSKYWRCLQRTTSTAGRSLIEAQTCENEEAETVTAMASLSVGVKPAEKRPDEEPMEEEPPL
# Histone deacetylase 5 = Histone deacetylase 5 (Homo sapiens, UniProt Q9UQL6); assay: Inhibition of human recombinant HDAC5
# Sequence of Histone deacetylase 5 (Q9UQL6 whole entry): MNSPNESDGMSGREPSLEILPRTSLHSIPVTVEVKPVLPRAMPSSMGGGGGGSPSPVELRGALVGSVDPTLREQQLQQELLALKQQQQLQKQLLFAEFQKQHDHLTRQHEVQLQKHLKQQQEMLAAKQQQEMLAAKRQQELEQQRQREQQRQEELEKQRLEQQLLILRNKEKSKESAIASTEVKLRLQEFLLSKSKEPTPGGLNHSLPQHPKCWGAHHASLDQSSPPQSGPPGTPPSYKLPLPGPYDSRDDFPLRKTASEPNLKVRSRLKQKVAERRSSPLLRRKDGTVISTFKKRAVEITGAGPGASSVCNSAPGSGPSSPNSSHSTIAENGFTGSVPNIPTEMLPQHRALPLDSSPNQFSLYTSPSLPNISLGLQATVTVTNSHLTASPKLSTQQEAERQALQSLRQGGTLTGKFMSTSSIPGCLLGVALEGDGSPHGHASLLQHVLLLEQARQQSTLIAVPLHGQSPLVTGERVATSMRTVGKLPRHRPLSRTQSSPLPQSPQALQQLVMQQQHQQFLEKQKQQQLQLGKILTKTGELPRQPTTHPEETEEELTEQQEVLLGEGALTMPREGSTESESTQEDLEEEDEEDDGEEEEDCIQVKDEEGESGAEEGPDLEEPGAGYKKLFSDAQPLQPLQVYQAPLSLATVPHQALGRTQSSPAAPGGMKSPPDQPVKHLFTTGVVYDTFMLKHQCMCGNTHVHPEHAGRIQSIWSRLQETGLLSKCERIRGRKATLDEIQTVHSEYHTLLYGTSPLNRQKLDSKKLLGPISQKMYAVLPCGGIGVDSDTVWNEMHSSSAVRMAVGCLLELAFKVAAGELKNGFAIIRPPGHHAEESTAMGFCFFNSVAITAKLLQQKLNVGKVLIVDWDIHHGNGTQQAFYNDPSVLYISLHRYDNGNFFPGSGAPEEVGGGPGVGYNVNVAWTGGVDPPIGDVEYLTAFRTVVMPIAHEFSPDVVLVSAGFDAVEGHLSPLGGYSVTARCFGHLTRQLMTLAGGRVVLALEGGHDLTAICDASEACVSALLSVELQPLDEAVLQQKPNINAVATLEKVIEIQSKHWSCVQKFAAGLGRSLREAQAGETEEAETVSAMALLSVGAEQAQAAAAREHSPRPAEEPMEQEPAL
# [2] = molecular target: T3, Protein deacetylase HDAC6 (Homo sapiens, UniProt Q9UBN7); assay: Inhibition of human recombinant HDAC6
# T3 sequence (Q9UBN7 whole entry): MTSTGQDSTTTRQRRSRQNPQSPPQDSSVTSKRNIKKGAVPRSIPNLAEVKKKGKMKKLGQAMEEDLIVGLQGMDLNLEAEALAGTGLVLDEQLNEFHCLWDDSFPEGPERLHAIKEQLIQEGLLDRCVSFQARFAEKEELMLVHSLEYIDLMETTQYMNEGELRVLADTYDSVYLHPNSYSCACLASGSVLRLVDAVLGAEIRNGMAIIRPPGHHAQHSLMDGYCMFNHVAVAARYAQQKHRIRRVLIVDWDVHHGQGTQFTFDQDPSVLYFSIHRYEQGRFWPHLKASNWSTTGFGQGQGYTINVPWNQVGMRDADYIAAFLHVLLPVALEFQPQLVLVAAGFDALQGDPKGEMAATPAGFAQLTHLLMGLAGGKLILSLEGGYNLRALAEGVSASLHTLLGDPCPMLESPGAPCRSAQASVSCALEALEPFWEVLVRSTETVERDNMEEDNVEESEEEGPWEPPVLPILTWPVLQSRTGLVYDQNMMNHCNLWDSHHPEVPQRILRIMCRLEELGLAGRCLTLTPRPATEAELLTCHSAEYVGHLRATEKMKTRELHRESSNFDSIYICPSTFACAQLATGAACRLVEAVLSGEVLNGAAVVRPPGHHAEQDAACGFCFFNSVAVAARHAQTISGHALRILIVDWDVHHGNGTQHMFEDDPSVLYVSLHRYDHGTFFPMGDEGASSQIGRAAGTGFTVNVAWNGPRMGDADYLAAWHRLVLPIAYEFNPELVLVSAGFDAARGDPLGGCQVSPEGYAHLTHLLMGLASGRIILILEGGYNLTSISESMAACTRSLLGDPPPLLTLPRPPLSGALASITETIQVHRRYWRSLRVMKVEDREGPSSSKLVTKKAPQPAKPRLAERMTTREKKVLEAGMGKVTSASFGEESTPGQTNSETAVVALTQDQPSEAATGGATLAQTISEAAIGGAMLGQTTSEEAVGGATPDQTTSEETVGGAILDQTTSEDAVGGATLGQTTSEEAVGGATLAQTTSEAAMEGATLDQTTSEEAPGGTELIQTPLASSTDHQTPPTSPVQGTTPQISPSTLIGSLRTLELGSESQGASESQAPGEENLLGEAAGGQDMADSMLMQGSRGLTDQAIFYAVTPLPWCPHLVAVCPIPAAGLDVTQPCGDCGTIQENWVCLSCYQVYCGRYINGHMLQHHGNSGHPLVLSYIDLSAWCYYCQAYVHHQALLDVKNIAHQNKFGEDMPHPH
# [3] = molecular target: T4, Polyamine deacetylase HDAC10 (Homo sapiens, UniProt Q969S8); assay: Inhibition of human recombinant HDAC10
# T4 sequence (Q969S8 whole entry): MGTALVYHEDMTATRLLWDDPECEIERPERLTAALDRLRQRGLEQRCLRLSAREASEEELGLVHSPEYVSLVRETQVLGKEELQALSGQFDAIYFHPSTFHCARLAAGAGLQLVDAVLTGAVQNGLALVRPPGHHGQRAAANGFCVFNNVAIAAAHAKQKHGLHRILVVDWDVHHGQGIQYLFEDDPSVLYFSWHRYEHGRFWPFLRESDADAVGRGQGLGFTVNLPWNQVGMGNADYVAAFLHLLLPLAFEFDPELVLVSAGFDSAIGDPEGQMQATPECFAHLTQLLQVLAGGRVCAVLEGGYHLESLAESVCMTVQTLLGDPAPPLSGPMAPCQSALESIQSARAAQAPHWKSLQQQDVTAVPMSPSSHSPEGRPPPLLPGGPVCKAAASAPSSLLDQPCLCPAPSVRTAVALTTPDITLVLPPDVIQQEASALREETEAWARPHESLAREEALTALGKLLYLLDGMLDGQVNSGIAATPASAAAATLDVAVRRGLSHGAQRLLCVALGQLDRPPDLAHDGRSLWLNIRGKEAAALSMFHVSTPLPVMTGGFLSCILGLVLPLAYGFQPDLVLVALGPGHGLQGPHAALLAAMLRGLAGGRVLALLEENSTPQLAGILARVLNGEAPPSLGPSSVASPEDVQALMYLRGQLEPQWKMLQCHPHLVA
# Histone deacetylase [4] = format: cell-based, Homo sapiens; conditions: hela
# Histone deacetylase 1 [5] = molecular target: T5, Histone deacetylase 1 (Homo sapiens, UniProt Q13547); assay: Inhibition of HDAC1 (unknown origin); conditions: pooled result: one value given for 7 cell lines, strains, targets or settings
# T5 sequence (Q13547 whole entry): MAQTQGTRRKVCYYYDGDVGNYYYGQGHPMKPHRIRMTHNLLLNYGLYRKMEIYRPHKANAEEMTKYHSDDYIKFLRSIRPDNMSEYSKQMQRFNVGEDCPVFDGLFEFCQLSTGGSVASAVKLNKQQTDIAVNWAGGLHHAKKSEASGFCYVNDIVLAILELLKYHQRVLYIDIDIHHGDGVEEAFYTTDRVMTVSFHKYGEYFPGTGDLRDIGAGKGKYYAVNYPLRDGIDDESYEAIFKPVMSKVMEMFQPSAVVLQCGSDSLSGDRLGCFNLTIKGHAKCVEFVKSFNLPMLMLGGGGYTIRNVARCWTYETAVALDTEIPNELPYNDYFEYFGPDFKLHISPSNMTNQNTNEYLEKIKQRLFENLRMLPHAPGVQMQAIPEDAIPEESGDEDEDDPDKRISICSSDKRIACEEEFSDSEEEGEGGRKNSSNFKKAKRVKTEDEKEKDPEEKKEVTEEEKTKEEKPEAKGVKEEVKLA
# Histone deacetylase 3 = Histone deacetylase 3 (Homo sapiens, UniProt O15379); assay: Inhibition of human recombinant HDAC3
# Sequence of Histone deacetylase 3 (O15379 whole entry): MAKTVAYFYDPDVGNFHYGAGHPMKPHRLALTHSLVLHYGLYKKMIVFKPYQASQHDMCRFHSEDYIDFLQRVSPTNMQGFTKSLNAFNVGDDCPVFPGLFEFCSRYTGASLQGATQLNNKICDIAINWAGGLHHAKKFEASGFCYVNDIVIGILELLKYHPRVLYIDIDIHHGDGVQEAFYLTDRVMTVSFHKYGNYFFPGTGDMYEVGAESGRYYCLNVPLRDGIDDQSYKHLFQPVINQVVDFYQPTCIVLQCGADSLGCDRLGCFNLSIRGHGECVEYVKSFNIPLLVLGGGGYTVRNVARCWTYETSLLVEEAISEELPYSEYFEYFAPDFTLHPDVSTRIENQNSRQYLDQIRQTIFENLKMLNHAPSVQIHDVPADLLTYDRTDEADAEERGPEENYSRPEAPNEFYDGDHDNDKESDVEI
# Histone deacetylase 2 = Histone deacetylase 2 (Homo sapiens, UniProt Q92769)
# Sequence of Histone deacetylase 2 (Q92769 whole entry): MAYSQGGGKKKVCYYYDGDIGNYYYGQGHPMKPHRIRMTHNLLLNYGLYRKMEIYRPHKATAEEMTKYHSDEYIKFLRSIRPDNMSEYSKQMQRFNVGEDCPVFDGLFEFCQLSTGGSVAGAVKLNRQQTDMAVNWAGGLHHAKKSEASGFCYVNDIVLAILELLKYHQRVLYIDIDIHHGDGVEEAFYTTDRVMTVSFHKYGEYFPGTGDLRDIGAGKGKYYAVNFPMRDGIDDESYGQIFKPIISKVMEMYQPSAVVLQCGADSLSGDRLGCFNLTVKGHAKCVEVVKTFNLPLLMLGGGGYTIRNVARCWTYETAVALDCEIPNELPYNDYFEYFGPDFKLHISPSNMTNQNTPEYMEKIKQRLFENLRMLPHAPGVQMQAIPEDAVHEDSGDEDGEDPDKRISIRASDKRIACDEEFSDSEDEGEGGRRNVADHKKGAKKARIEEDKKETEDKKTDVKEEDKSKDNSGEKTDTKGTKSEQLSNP
# Histone deacetylase 7 = molecular target: T6, Histone deacetylase 7 (Homo sapiens, UniProt Q8WUI4); assay: Inhibition of human recombinant HDAC7
# T6 sequence (Q8WUI4 whole entry): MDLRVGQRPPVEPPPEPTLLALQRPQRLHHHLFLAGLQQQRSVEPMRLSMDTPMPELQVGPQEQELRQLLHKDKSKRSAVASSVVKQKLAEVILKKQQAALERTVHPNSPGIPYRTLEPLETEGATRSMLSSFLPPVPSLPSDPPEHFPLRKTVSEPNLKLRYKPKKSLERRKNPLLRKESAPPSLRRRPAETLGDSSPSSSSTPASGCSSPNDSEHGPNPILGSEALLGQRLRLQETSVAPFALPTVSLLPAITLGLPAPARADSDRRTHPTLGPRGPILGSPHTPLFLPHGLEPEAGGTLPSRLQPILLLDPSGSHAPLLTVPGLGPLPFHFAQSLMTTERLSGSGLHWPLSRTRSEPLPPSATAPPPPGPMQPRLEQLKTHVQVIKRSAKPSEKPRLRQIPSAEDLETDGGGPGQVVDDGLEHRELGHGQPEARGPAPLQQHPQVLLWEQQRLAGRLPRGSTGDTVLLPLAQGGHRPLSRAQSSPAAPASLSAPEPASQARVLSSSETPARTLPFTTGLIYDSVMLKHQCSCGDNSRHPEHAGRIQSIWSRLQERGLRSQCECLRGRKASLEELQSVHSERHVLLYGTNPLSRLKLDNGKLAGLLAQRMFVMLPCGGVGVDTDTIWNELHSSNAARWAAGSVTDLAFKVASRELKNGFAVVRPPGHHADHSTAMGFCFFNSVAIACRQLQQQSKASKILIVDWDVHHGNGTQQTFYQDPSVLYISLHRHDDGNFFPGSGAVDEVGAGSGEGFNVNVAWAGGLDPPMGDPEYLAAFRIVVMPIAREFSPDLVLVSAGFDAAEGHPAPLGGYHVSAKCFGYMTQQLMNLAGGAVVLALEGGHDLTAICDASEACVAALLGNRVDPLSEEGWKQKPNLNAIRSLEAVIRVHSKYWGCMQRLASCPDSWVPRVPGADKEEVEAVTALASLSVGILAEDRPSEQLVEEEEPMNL
# Histone deacetylase [6] = assay: Inhibition of HDAC (unknown origin); format: protein assay, Homo sapiens
# HRT-18 cell line = assay: Antiproliferative activity against human HRT-18 cell line assessed as cell growth inhibition measured after 72 hrs by MTT assay; format: functional, cell-based; conditions: HRT-18, 72 h
# HBL-100 = assay: Cytotoxicity against human HBL-100 cells assessed as cell growth inhibition; format: toxicity, cell-based
# [7] = Antiproliferative activity against human HC-04 cells assessed as cell growth inhibition measured after 72 hrs by MTT assay; format: functional, cell-based; conditions: HC04, 72 h
# Histone deacetylase 1 [8] = molecular target: T5, Histone deacetylase 1; assay: Inhibition of human recombinant HDAC1
# Toxoplasma gondii = assay: Antiparasitic activity against Toxoplasma gondii assessed as parasitic growth inhibition; format: functional, organism-based
# [9] = Dissociation constant, pKa of the compound; format: physicochemical
smiles,measurement,setting,value
CNC(=O)C(=O)CCCCCCOc1ccc(-c2ccccc2)cc1,IC50,[1],0.11 µM
O=C(O)CNC(=O)C(=O)CCCCCCOc1ccc(-c2ccccc2)cc1,IC50,[1],> 50 µM
NC(=O)C(=O)CCCCCCOc1ccc(-c2ccccc2)cc1,IC50,[1],> 50 µM
O=C(CCCCCCC(=O)C(F)(F)F)Nc1ccccc1,IC50,Histone deacetylase 8,1.7 µM
same,IC50,Histone deacetylase 9,5.9 µM
same,IC50,Histone deacetylase 11,100 µM
same,IC50,Histone deacetylase 4,0.04 µM
same,IC50,Histone deacetylase 5,0.04 µM
same,IC50,[2],2.2 µM
same,IC50,[3],19 µM
CN(C)C(=O)C(=O)CCCCCCOc1ccc(-c2ccccc2)cc1,IC50,[1],> 5 µM
O=C(CCCCCCNCCS)Nc1ccccc1,IC50,Histone deacetylase [4],> 100 µM
COc1cccc(NC(=O)CCCCCC(=O)Nc2ccccc2)c1,IC50,Histone deacetylase [4],> 1000 µM
CNC(=O)/C(CCCCCCC(=O)Nc1ccccc1)=N\O,IC50,Histone deacetylase 1 [5],22 µM
O=C(CO)NCCCCCC(=O)Nc1ccccc1,IC50,Histone deacetylase [4],> 100 µM
CN(C)CCNC(=O)C(=O)CCCCCCOc1ccc(-c2ccccc2)cc1,IC50,[1],> 50 µM
CCNC(=O)C(=O)CCCCCCOc1ccc(-c2ccccc2)cc1,IC50,[1],4.9 µM
NCC(=O)NCCCCCC(=O)Nc1ccccc1,IC50,Histone deacetylase [4],> 100 µM
C[Si](O)(O)CCCCCCC(=O)Nc1ccccc1,IC50,Histone deacetylase 8,27 µM
same,IC50,Histone deacetylase 3,0.6 µM
same,IC50,Histone deacetylase 11,57 µM
same,IC50,Histone deacetylase 4,> 100 µM
same,IC50,Histone deacetylase 2,6 µM
same,IC50,Histone deacetylase 5,> 100 µM
same,IC50,Histone deacetylase 7,> 100 µM
same,IC50,[2],18 µM
same,IC50,[3],5 µM
C[C@@H](O)C(=O)CCCCCCC(=O)Nc1ccccc1,IC50,Histone deacetylase [6],> 33 µM
same,IC50,[2],> 300 µM
same,IC50,Histone deacetylase [4],8.9 µM
C[C@H](O)C(=O)CCCCCCC(=O)Nc1ccccc1,IC50,[2],> 300 µM
same,IC50,Histone deacetylase [4],77.1 µM
NC(=S)NC(=O)CCCCCC(=O)Nc1ccccc1,IC50,HRT-18 cell line,24.1 µM
same,inhibition (INH),HBL-100,< 12%
same,IC50,[7],24.1 µM
C[S+]([O-])CCCCCCC(=O)Nc1ccccc1 (centres undefined),IC50,Histone deacetylase [4],48 µM
O=C(CCCCCCOP(=O)([O-])[O-])Nc1ccccc1.[K+].[K+],IC50,Histone deacetylase [4],3900 µM
NC(=S)NC(=O)CCCCC(=O)Nc1ccccc1,IC50,HRT-18 cell line,30.4 µM
same,inhibition (INH),HBL-100,< 12%
same,IC50,[7],30.4 µM
O=C(CCCCNP(=O)([O-])[O-])Nc1ccccc1.[K+].[K+],IC50,Histone deacetylase [4],360 µM
CCN(CC)C(=S)SSCCCCCC(=O)Nc1ccccc1,IC50,Histone deacetylase 2,0.18 µM
same,IC50,Histone deacetylase 1 [8],0.046 µM
same,IC50,[2],0.068 µM
same,IC50,[3],0.14 µM
same,IC50,Histone deacetylase [4],0.7 µM
C=C1N[C@@](C)(CC)C(=O)N[C@@H](Cc2ccccc2)C(=O)N2C[C@@H](C)C[C@@H]2C(=O)N[C@H]1CCCCCC(=O)[C@@H](C)O,IC50,Toxoplasma gondii,0.0286 µM
O=C(c1ccc(C(=O)C(F)(F)C(F)(F)F)s1)N1CCc2ccccc21,IC50,Histone deacetylase 3,2.9 µM
same,IC50,Histone deacetylase 1 [8],4.2 µM
CCC(=O)CCCCCCC(=O)Nc1ccccc1,IC50,[2],> 300 µM
same,IC50,Histone deacetylase [4],> 100 µM
O=C(CCCCCOP(=O)([O-])[O-])Nc1ccccc1.[K+].[K+],IC50,Histone deacetylase [4],60 µM
O=C(CCCCOP(=O)([O-])[O-])Nc1ccccc1.[K+].[K+],IC50,Histone deacetylase [4],2200 µM
O=C(CCCCCNP(=O)([O-])[O-])Nc1ccccc1.[K+].[K+],IC50,Histone deacetylase [4],70 µM
O=C(CCCCCOP([O-])([O-])=S)Nc1ccccc1.[K+].[K+],IC50,Histone deacetylase [4],50 µM
O=C(CCCCCCNP(=O)([O-])[O-])Nc1ccccc1.[K+].[K+],IC50,Histone deacetylase [4],490 µM
CC(=O)O[C@H](C)C(=O)CCCCCCC(=O)Nc1ccccc1,IC50,[2],> 300 µM
same,IC50,Histone deacetylase [4],63.8 µM
O=C(CCCCCCC(=O)Nc1ccccc1)NO [VORINOSTAT],pKa,[9],9.4
